Molecular target: T1, TNIK (Homo sapiens, UniProt Q9UKE5)
T1 construct: purchased Promega V4158
Assay: ADP-Glo Kinase Assay, inhibition activity on TNIK
Type: biochemical
Details: not given
Experimental: The inhibition activities on TNIK, IKKε and TBK1 were measured by a luminometer, TNIK/IKKε/TBK1 Kinase Enzyme System (Promega, Ca# V4158; Invitrogen, PR8031B, Promega, Ca# V3991) and ADP-Glo Kinase Assay using ADP-Glo™ Kinase Analysis Kit (Promega, Ca# V9101) and a kinase reaction buffer [40 mM Tris(pH 7.5), 20 mM MgCl2, 0.1 mg/mL BSA] in accordance with the manufacturer's protocol.

T1 sequence (Q9UKE5 1-367 limits assumed): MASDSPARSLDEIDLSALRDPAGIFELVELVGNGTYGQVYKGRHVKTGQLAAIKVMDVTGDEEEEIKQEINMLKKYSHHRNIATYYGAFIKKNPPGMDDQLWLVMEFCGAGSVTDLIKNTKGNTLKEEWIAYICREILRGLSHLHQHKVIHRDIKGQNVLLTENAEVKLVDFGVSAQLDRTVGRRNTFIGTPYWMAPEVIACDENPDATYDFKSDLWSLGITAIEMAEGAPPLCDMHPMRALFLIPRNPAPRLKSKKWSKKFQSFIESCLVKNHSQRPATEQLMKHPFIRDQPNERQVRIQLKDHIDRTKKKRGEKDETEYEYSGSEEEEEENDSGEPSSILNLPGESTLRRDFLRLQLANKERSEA

In the case of O=C(Nc1ccc(Nc2ccccn2)c2c1C(=O)NC2)c1ccc(F)cc1 [Example 428, 4-Fluoro-N-(3-oxo-7-(pyridin-2-ylamino)isoindolin-4-yl) benzamide], the “TNIK (μM)” value is reported as “Insoluble”.

Same assay, conditions: read-out: TNIK

Point of comparison: O=C(Nc1ccc(Nc2cccnc2)c2c1C(=O)NC2)c1ccc(F)cc1 [Example 427, 4-Fluoro-N-(3-oxo-7-(pyridin-3-ylamino)isoindolin-4-yl) benzamide], IC50 620 nM. Against it:
- O=C(Nc1ccc(-c2ccccc2)c2c1C(=O)NCC2)c1ccco1 [Example 399, N-(1-oxo-5-phenyl-1,2,3,4-tetrahydroisoquinolin-8-yl)furan-2-carboxamide] — 2.9-fold higher, 1800 nM
- COc1cccc(-c2ccc(NC(=O)c3ccc(F)cc3)c3c2CCNC3=O)c1OC [Example 400, N-(5-(2,3-dimethoxyphenyl)-1-oxo-1,2,3,4-tetrahydroisoquinolin-8-yl)-4-fluorobenzamide] — 13-fold higher, 8180 nM
- O=C(Nc1ccc(-c2ccccc2)c2c1C(=O)NCC2)c1ccc(NCCN2CCCC2)cc1 [Example 401, N-(1-oxo-5-phenyl-1,2,3,4-tetrahydroisoquinolin-8-yl)-4-((2-(pyrrolidin-1-yl)ethyl)amino)benzamide] — 3.5-fold higher, 2150 nM
- COc1ccccc1-c1ccc(NC(=O)c2ccc(NCCN3CCCC3)cc2)c2c1CCNC2=O [Example 402, N-(5-(2-methoxyphenyl)-1-oxo-1,2,3,4-tetrahydroisoquinolin-8-yl)-4-((2-(pyrrolidin-1-yl)ethyl)amino)benzamide] — 3.8-fold higher, 2380 nM
- O=C(Nc1ccc(Br)c2c1C(=O)NCC2)c1ccc(NCCN2CCCC2)cc1 [Example 403, N-(5-bromo-1-oxo-1,2,3,4-tetrahydroisoquinolin-8-yl)-4-((2-(pyrrolidin-1-yl)ethyl)amino)benzamide] — 16-fold higher, 9820 nM
- O=C(Nc1ccc(Sc2ccccc2)c2c1C(=O)NC2)c1ccc(F)cc1 [Example 404, 4-Fluoro-N-(3-oxo-7-(phenylthio)isoindolin-4-yl)benzamide] — higher, > 20000 nM
- O=C(Nc1ccc(S(=O)(=O)c2ccccc2)c2c1C(=O)NC2)c1ccccc1 [Example 406, N-(3-oxo-7-(phenylsulfonyl)isoindolin-4-yl)benzamide] — higher, > 20000 nM
- O=C(Nc1ccc(Sc2ccccc2)c2c1C(=O)NC2)c1ccccc1 [Example 407, N-(3-oxo-7-(phenylthio)isoindolin-4-yl)benzamide] — 3.7-fold higher, 2300 nM
- O=C(Nc1ccc(Nc2ccccc2)c2c1C(=O)NC2)c1ccc(F)cc1 [Example 408, 4-Fluoro-N-(3-oxo-7-(phenylamino)isoindolin-4-yl)benzamide] — 2.2-fold lower, 280 nM
- O=C(Nc1ccc(Nc2ccccc2)c2c1C(=O)NC2)c1ccccc1 [Example 409, N-(3-oxo-7-(phenylamino)isoindolin-4-yl)benzamide] — 1.9-fold lower, 320 nM
- COc1ccccc1Nc1ccc(NC(=O)c2ccccc2)c2c1CNC2=O [Example 410, N-(7-((2-methoxyphenyl)amino)-3-oxoisoindolin-4-yl) benzamide] — within 1.5-fold, 450 nM
- Cc1ccccc1Nc1ccc(NC(=O)c2ccccc2)c2c1CNC2=O [Example 411, N-(3-oxo-7-(o-tolylamino)isoindolin-4-yl)benzamide] — higher, > 20000 nM
- Cc1ccc(Nc2ccc(NC(=O)c3ccccc3)c3c2CNC3=O)cc1 [Example 412, N-(3-oxo-7-(p-tolylamino)isoindolin-4-yl)benzamide] — 6.6-fold higher, 4100 nM
- O=C(Nc1ccc(Nc2ccccc2F)c2c1C(=O)NC2)c1ccccc1 [Example 413, N-(7-((2-fluorophenyl)amino)-3-oxoisoindolin-4-yl)benzamide] — within 1.5-fold, 500 nM
- O=C(Nc1ccc(Nc2ccc(F)cc2)c2c1C(=O)NC2)c1ccccc1 [Example 414, N-(7-((4-fluorophenyl)amino)-3-oxoisoindolin-4-yl)benzamide] — within 1.5-fold, 550 nM
- O=C(Nc1ccc(Nc2cccc(F)c2)c2c1C(=O)NC2)c1ccccc1 [Example 415, N-(7-((3-fluorophenyl)amino)-3-oxoisoindolin-4-yl)benzamide] — 2.7-fold higher, 1700 nM
- COc1ccc(Nc2ccc(NC(=O)c3ccccc3)c3c2CNC3=O)cc1 [Example 416, N-(7-((4-methoxyphenyl)amino)-3-oxoisoindolin-4-yl) benzamide] — 6-fold higher, 3700 nM
- Cc1ccc(C(=O)Nc2ccc(Nc3ccccc3)c3c2C(=O)NC3)cc1 [Example 417, 4-Methyl-N-(3-oxo-7-(phenylamino)isoindolin-4-yl)benzamide] — within 1.5-fold, 500 nM
- O=C(Nc1ccc(Nc2cccc(Cl)c2)c2c1C(=O)NC2)c1ccc(F)cc1 [Example 418, N-(7-((3-chlorophenyl)amino)-3-oxoisoindolin-4-yl)-4-fluorobenzamide] — 1.9-fold higher, 1170 nM
- O=C(Nc1ccc(Nc2ccccc2Cl)c2c1C(=O)NC2)c1ccc(F)cc1 [Example 419, N-(7-((2-chlorophenyl)amino)-3-oxoisoindolin-4-yl)-4-fluorobenzamide] — 3.4-fold higher, 2110 nM
- O=C(Nc1ccc(Nc2ccccc2)c2c1C(=O)NC2)c1ccccc1F [Example 420, 2-Fluoro-N-(3-oxo-7-(phenylamino)isoindolin-4-yl)benzamide] — within 1.5-fold, 790 nM
- O=C(Nc1ccc(Nc2ccccc2)c2c1C(=O)NC2)c1cccc(F)c1 [Example 421, 3-Fluoro-N-(3-oxo-7-(phenylamino)isoindolin-4-yl)benzamide] — within 1.5-fold, 820 nM
- COc1cccc(Nc2ccc(NC(=O)c3ccc(F)cc3)c3c2CNC3=O)c1OC [Example 422, N-(7-((2,3-dimethoxyphenyl)amino)-3-oxoisoindolin-4-yl)-4-fluorobenzamide] — 1.9-fold higher, 1180 nM
- O=C(Nc1ccc(Nc2cc(C(F)(F)F)cc(C(F)(F)F)c2)c2c1C(=O)NC2)c1ccc(F)cc1 [Example 423, N-(7-((3,5-bis(trifluoromethyl)phenyl)amino)-3-oxoisoindolin-4-yl)-4-fluorobenzamide] — higher, > 20000 nM
- Cc1cccc(Nc2ccc(NC(=O)c3ccc(F)cc3)c3c2CNC3=O)c1C [Example 424, N-(7-((2,3-dimethylphenyl)amino)-3-oxoisoindolin-4-yl)-4-fluorobenzamide] — 2.2-fold higher, 1350 nM
- COc1ccccc1Nc1ccc(NC(=O)c2ccc(F)cc2)c2c1CNC2=O [Example 425, 4-Fluoro-N-(7-((2-methoxyphenyl)amino)-3-oxoisoindolin-4-yl)benzamide] — within 1.5-fold, 840 nM
- Cc1ccccc1Nc1ccc(NC(=O)c2ccc(F)cc2)c2c1CNC2=O [Example 426, 4-Fluoro-N-(3-oxo-7-(o-tolylamino)isoindolin-4-yl)benzamide] — 2-fold higher, 1260 nM
- O=C(Nc1ccc(Nc2cnccn2)c2c1C(=O)NC2)c1ccc(F)cc1 [Example 429, 4-Fluoro-N-(3-oxo-7-(pyrazin-2-ylamino)isoindolin-4-yl) benzamide] — within 1.5-fold, 530 nM
- Cn1cc(Nc2ccc(NC(=O)c3ccc(F)cc3)c3c2CNC3=O)cn1 [Example 430] — 10-fold higher, 6470 nM
- COc1cccc(Nc2ccc(NC(=O)c3ccccc3)c3c2CNC3=O)c1 [Example 431, N-(7-((3-methoxyphenyl)amino)-3-oxoisoindolin-4-yl) benzamide] — 1.5-fold higher, 940 nM
- COc1ccccc1C(=O)Nc1ccc(Nc2ccccc2)c2c1C(=O)NC2 [Example 432, 2-Methoxy-N-(3-oxo-7-(phenylamino)isoindolin-4-yl) benzamide] — 20-fold higher, 12200 nM
- COc1ccc(C(=O)Nc2ccc(Nc3ccccc3)c3c2C(=O)NC3)cc1 [Example 433, 4-Methoxy-N-(3-oxo-7-(phenylamino)isoindolin-4-yl) benzamide] — 1.6-fold lower, 400 nM
- COc1cccc(C(=O)Nc2ccc(Nc3ccccc3)c3c2C(=O)NC3)c1 [Example 434, 3-Methoxy-N-(3-oxo-7-(phenylamino)isoindolin-4-yl) benzamide] — within 1.5-fold, 670 nM
- CC(=O)Nc1ccc(C(=O)Nc2ccc(Nc3ccccc3)c3c2C(=O)NC3)cc1 [Example 435, 4-Acetamido-N-(3-oxo-7-(phenylamino)isoindolin-4-yl) benzamide] — 3-fold lower, 210 nM
- Cc1cccc(Nc2ccc(NC(=O)c3ccccc3)c3c2CNC3=O)c1 [Example 436, N-(3-oxo-7-(m-tolylamino)isoindolin-4-yl)benzamide] — within 1.5-fold, 590 nM
- O=C(Nc1ccc(Nc2cc[nH]n2)c2c1C(=O)NC2)c1ccc(F)cc1 [Example 437] — 4.7-fold higher, 2900 nM
- O=C(Nc1ccc(Nc2ccccc2)c2c1C(=O)NC2)c1ccc(NCCN2CCCC2)cc1 [Example 438, N-(3-oxo-7-(phenylamino)isoindolin-4-yl)-4-((2-(pyrrolidin-1-yl)ethyl)amino)benzamide] — 3.9-fold lower, 160 nM
- O=C(Nc1ccc(Nc2ccccc2)c2c1C(=O)NC2)c1ccc(NCCN2CCCCC2)cc1 [Example 439, N-(3-oxo-7-(phenylamino)isoindolin-4-yl)-4-((2-(piperidin-1-yl)ethyl)amino)benzamide] — 4.1-fold lower, 150 nM
- CN(C)CCNc1ccc(C(=O)Nc2ccc(Nc3ccccc3)c3c2C(=O)NC3)cc1 [Example 441] — 2.6-fold lower, 240 nM
- O=C(Nc1ccc(Nc2ccccc2)c2c1C(=O)NC2)c1ccc(NCCN2CCOCC2)cc1 [Example 442, 4-((2-Morpholinoethyl)amino)-N-(3-oxo-7-(phenylamino)isoindolin-4-yl)benzamide] — 4.1-fold lower, 150 nM
- CN1CCN(CCNc2ccc(C(=O)Nc3ccc(Nc4ccccc4)c4c3C(=O)NC4)cc2)CC1 [Example 443, 4-((2-(4-Methylpiperazin-1-yl)ethyl)amino)-N-(3-oxo-7-(phenylamino)isoindolin-4-yl)benzamide] — 5.2-fold lower, 120 nM
- COCCNc1ccc(C(=O)Nc2ccc(Nc3ccccc3)c3c2C(=O)NC3)cc1 [Example 444, 4-((2-Methoxyethyl)amino)-N-(3-oxo-7-(phenylamino)isoindolin-4-yl)benzamide] — 5.6-fold lower, 110 nM
- COc1cccc(Nc2ccc(NC(=O)c3ccc(NCCN4CCCC4)cc3)c3c2CNC3=O)c1 [Example 445, N-(7-((3-methoxyphenyl)amino)-3-oxoisoindolin-4-yl)-4-((2-(pyrrolidin-1-yl)ethyl)amino)benzamide] — within 1.5-fold, 550 nM
